Measurements from US12459921B2, “Isoindoline compound, preparation method, pharmaceutical composition and use thereof” (SHANGHAI INSTITUTE OF MATERIA MEDICA, CHINESE ACADEMY OF …, priority 2018, dated 2025).
pIC50: −log10 of the molar value.

tested on: MV-4-11 cells; assay: Inhibitory effect on the proliferation of MV-4-11 cells, MTS cell viability test; type: cell-based; conditions: Homo sapiens, MV4-11, 168 h, acute leukemia MV-4-11 cells, 7 days incubation, read-out: Tumor cell inhibitory activity
Experimental: Method of tumor cell proliferation inhibition test: the inventors tested all the example compounds on hematologic tumor cells, multiple myeloma MMTs cell line and acute leukemia cell MV-4-11 cell line of some examples. The activity test method and results are as follows.
2. The Inhibitory Effect of Compounds on the Proliferation of MV-4-11 Cells, MTS Cell Viability Test: 1). Experimental Method:
MV-4-11 cells were cultured and collected with IMDM and 10% fetal bovine serum. The cell concentration was diluted according to 7 days, and 180 ul of cell suspension was added to each well of a 96-well cell plate to 2000 cells. 20 ul of DMSO with a final concentration of 0.2% was added to the control wells. The compound was diluted 5-fold from the 10 mM stock solution, and 20 ul was also added to the compound cell wells (the final concentration of DMSO was 0.2%). The cells were placed in a 37° C., 5% CO2 incubator and incubated for 7 days. After the reaction solution was prepared according to the MTS kit (Promega, G5430), 20 μL was added to each well, incubated in a 37° C., 5% CO2 incubator for 3-4 h. The 490 nm absorbance value was read with a microtiter plate, and the 690 nm absorbance value was used as the background value. OD490-OD690 was used as the final initial data. The formula for calculating the inhibition rate of the compound was: inhibition rate=(ODDMSO-ODcompound)/(ODDMSO-Oblank)×100%. The compound's proliferation inhibition IC50 was fitted by Graph Pad Prism 5.0. The experiment was repeated three times, and the average and standard deviation was calculated according to three parallel experiments each time.

SMILES	pIC50
CC(=O)N[C@@H](CCCc1cccc2c1CN(C1CCC(=O)NC1=O)C2=O)C(=O)NCc1ccccc1 (stereo partly drawn) [Example 166, (2S)-2-acetylamino-N-benzyl-5-(2-(2,6-dioxopiperidine-3-)-1-oxoisoindoline-4-)pentanamide]	6.70
Cc1nc2cccc(N)c2c(=O)n1C1CCC(=O)NC1=O (stereo not shown) [CC-122, reference compound]	< 4.70
O=C1CCC(N2Cc3c(CCCCCN4CCN(c5c(Cl)cccc5Cl)CC4)cccc3C2=O)C(=O)N1 (stereo not shown) [Example 235, 3-(4-(5-(4-(2,6-dichlorophenyl)piperazine-1-yl)pentyl)-1-oxoisoindoline-2-yl)piperidine-2,6-dione]	6.32

tested on: MM.1S cells; assay: Inhibitory effect on the proliferation of MM.1S, MTS cell viability test; type: cell-based; conditions: Homo sapiens, MM1.S, 168 h, multiple myeloma MM.1S cells, 7 days incubation, read-out: Tumor cell inhibitory activity
Outline: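 Viability measured by MTS (OD490 minus OD690 background, 3-4 h) after a 7-day exposure of 20,000 MM.1S cells/well to 5-fold serially diluted compound, 0.2% DMSO final. Inhibition calculated relative to DMSO wells; IC50 curve-fitted, averaged over three repeats.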

SMILES	pIC50
CC(=O)N[C@@H](CCCc1cccc2c1CN(C1CCC(=O)NC1=O)C2=O)C(=O)NCc1ccccc1 (stereo partly drawn) [Example 166, (2S)-2-acetylamino-N-benzyl-5-(2-(2,6-dioxopiperidine-3-)-1-oxoisoindoline-4-)pentanamide]	6.00 to 7.00
Cc1nc2cccc(N)c2c(=O)n1C1CCC(=O)NC1=O (stereo not shown) [CC-122, reference compound]	> 7.00
O=C1CCC(N2Cc3c(CCCCCN4CCN(c5c(Cl)cccc5Cl)CC4)cccc3C2=O)C(=O)N1 (stereo not shown) [Example 235, 3-(4-(5-(4-(2,6-dichlorophenyl)piperazine-1-yl)pentyl)-1-oxoisoindoline-2-yl)piperidine-2,6-dione]	6.00 to 7.00
Cc1ccc(NC(=O)[C@H](CCCc2cccc3c2CN(C2CCC(=O)NC2=O)C3=O)NC(=O)CCCCCO)cc1Cl (stereo partly drawn) [Example 193, N-((2S)-1-(3-chloro-4-methylaniline)-5-(2-(2,6-dioxopiperidine-3-)-1-oxoisoindoline-4-)-1-oxopentyl-2-)-6-hydroxyhexanamide]	> 7.00
Cc1ccc(NC(=O)CCCCOc2cccc3c2CN(C2CCC(=O)NC2=O)C3=O)cc1Cl (stereo not shown) [Example 159, N-(3-chloro-4-methylphenyl)-5-((2-(2,6-dioxopiperidine-3-)-1-oxoisoindoline-4-)oxy)valeramide]	> 7.00
O=C1CCC(N2Cc3c(OCCCN4CCC5(CC4)OCc4ccc(Cl)cc45)cccc3C2=O)C(=O)N1 (stereo not shown) [Example 138, 3-(4-(3-(6-chloro-3H-spiro[isobenzofuran-1,4′-piperidine]-1′-)propoxy)-1-oxoisoindoline-2-)piperidine-2,6-dione]	> 7.00
O=C1CCC(N2Cc3c(CCCCCN4CCCc5ccc(Cl)cc54)cccc3C2=O)C(=O)N1 (stereo not shown) [Example 109, 3-(4-(5-(7-chloro-3,4-dihydroquinoline-1(2H))pentyl)-1-oxoisoindoline-2-)piperidine-2,6-dione]	4.70 to 6.00
N#CC1(c2ccc(OC(F)(F)F)cc2Cl)CCN(CCCCc2cccc3c2CN(C2CCC(=O)NC2=O)C3=O)CC1 (stereo not shown) [Example 257, 4-(2-chloro-4-(trifluoromethoxy)phenyl)-1-(4-(2-(2,6-dioxopiperidin-3-yl)-1-oxoisoindolin-4-yl)butyl)piperidine-4-carbonitrile]	6.00 to 7.00
O=C1CCC(N2Cc3c(CCCCN4CCN(c5ccc(Cl)cc5Cl)CC4)cccc3C2=O)C(=O)N1 (stereo not shown) [Example 222, 3-(4-(4-(4-(2,4-dichlorophenyl)piperazine-1-yl)butyl)-1-oxoisoindoline-2-yl)piperidine-2,6-dione]	> 7.00
O=C1CCC(N2Cc3c(OCCCCNC(=O)N4CCC5(CC4)OCc4ccc(Cl)cc45)cccc3C2=O)C(=O)N1 (stereo not shown) [Example 154, 6-chloro-N-(4-((2-(2,6-dioxopiperidine-3-)-1-oxoisoindoline-4-)-oxy-)butyl)-3H-spiro[isobenzofuran-1,4-piperidine]-1-carboxamide]	> 7.00
N#CC1(c2ccccc2)CCN(CCCOc2cccc3c2CN(C2CCC(=O)NC2=O)C3=O)CC1 (stereo not shown) [Example 53, 1-(3-((2-(2,6-dioxopiperidine-3-)-1-oxoisoindoline-4-)oxy)propyl)-4-phenylpiperidine-4-carboxonitrile]	> 7.00
N[C@@H](CCCc1cccc2c1CN(C1CCC(=O)NC1=O)C2=O)c1nc2ccncc2[nH]1 (stereo partly drawn) [Example 201, 3-(4-((S)-4-amino-4-(3H-imidazole[4,5-c]pyridine-2-)butyl)-1-oxoindoline-2-)piperidine-2,6-dione]	< 4.70
CC(=O)N[C@@H](CCCc1cccc2c1CN(C1CCC(=O)NC1=O)C2=O)C(=O)NCc1ccc(Oc2ccccc2)cc1 (stereo partly drawn) [Example 192, (2S)-2-acetylamino-5-(2-(2,6-dioxopiperidine-3-)-1-oxoisoindoline-4-)-N-(4-phenoxybenzyl)pentanamide]	6.00 to 7.00
O=C1CCC(N2Cc3c(OCCCC(=O)N4CCC5(CC4)OCc4ccc(Cl)cc45)cccc3C2=O)C(=O)N1 (stereo not shown) [Example 153]	6.00 to 7.00
O=C1CCC(N2Cc3c(OCCCCOc4cc(C5CC5)nc5ccccc45)cccc3C2=O)C(=O)N1 (stereo not shown) [Example 8, 3-(4-(4-((2-cyclopropylquinoline-4-)oxy)butoxy)-1-oxoisoindoline-2-)piperidine-2,6-dione]	> 7.00
O=C1CCC(N2Cc3c(CCCCCN4CCCC4c4ccccc4)cccc3C2=O)C(=O)N1 (stereo not shown) [Example 17, 3-(1-oxo-4-(5-(2-phenylpyrroline-1-)pentyl)indoline-2-)piperidine-2,6-dione]	> 7.00

SMILES	pIC50
N[C@@H](CCCc1cccc2c1CN(C1CCC(=O)NC1=O)C2=O)C(=O)NC1C2CC3CC(C2)CC1C3 (stereo partly drawn) [Example 176, (2S)—N-((1S,3S,5S,7 S)-adamantane-2-)-2-amino-5-(2-(2,6-dioxopiperidine-3-)-1-oxoisoindoline-4-)pentanamide]	< 4.70
O=C1CCC(N2Cc3c(CCCCCN4CCc5ccccc5C4)cccc3C2=O)C(=O)N1 (stereo not shown) [Example 113, 3-(4-(5-(3,4-dihydroisoquinoline-2(1H)-)pentyl)-1-oxoisoindoline-2-)piperidine-2,6-dione]	6.00 to 7.00
O=C1CCC(N2Cc3c(OCCCCN4CCC(c5noc6cc(F)ccc56)CC4)cccc3C2=O)C(=O)N1 (stereo not shown) [Example 241, 3-(4-(4-(4-(6-fluorobenzisoxazole-3-yl)piperidin-1-yl)butoxy)-1-oxoisoindoline-2-yl) piperidine-2,6-dione]	4.70 to 6.00
N#CC1(c2ccccc2Cl)CCN(C(=O)CCCOc2cccc3c2CN(C2CCC(=O)NC2=O)C3=O)CC1 (stereo not shown) [Example 82, 4-(2-chlorophenyl)-1-(4-((2-(2,6-dioxopiperidine-3-)-1-oxoisoindoline-4-)oxy)butyryl)piperidine-4-carbonitrile]	6.00 to 7.00
O=C1CCC(N2Cc3c(CCCCCOc4cccc5cnccc45)cccc3C2=O)C(=O)N1 (stereo not shown) [Example 5]	6.00 to 7.00
[2H]c1c([2H])c([2H])c(N2CCN(CCCCc3cccc4c3CN(C3CCC(=O)NC3=O)C4=O)CC2)c([2H])c1[2H] (stereo not shown) [Example 208, 3-(1-oxo-4-(4-(4-(phenyl-d5)piperazine-1-)butyl)isoindoline-2-)piperidine-2,6-dione]	6.00 to 7.00
Cc1ccc(NC(=O)[C@H](CCCc2cccc3c2CN(C2CCC(=O)NC2=O)C3=O)NC(=O)C2CC2)cc1Cl (stereo partly drawn) [Example 185, N-((2S)-1-((3-chloro-4-methylphenyl)amino)-5-(2-(2,6-dioxopiperidine-3-)-1-oxoisoindoline-4-)-1-oxopentyl-2-)cyclopropylformamide]	> 7.00
N#CC1(c2ccccc2OC(F)(F)F)CCN(CCCOc2cccc3c2CN(C2CCC(=O)NC2=O)C3=O)CC1 (stereo not shown) [Example 78, 1-(3-((2-(2,6-dioxopiperidine-3-)-1-oxoisoindoline-4-)-oxy-)propyl)-4-(2-trifluoromethoxyphenyl)piperidine-4-carbonitrile]	> 7.00
CC(=O)N[C@@H](CCCc1cccc2c1CN(C1CCC(=O)NC1=O)C2=O)C(=O)NCc1ccc(N2CCCC2)cc1 (stereo partly drawn) [Example 186, (2S)-2-acetylamino-5-(2-(2,6-dioxopiperidine-3-)-1-oxoisoindoline-4-)-N-(4-(pyrrolidine-1-)benzyl)pentanamide]	6.00 to 7.00
O=C1CCC(N2Cc3c(CCCCCN4CCC5(CC4)OCc4ccc(Cl)cc45)cccc3C2=O)C(=O)N1 (stereo not shown) [Example 127]	6.00 to 7.00
N#CC1(c2ccc(Cl)cc2)CCN(CCCCCCc2cccc3c2CN(C2CCC(=O)NC2=O)C3=O)CC1 (stereo not shown) [Example 102, 4-(4-chlorophenyl)-1-(6-(2-(2,6-dioxopiperidine-3-)-1-oxoisoindoline-4-)hexyl)piperidine-4-carbonitrile]	> 7.00
N#CC1(c2cccc(Cl)c2)CCN(CCCCCCc2cccc3c2CN(C2CCC(=O)NC2=O)C3=O)CC1 (stereo not shown) [Example 100, 4-(3-chlorophenyl)-1-(6-(2-(2,6-dioxopiperidine-3-)-1-oxoisoindoline-4-)hexyl)piperidine-4-carbonitrile]	> 7.00
Cc1ccc2c(c1)C1(CCN(CCCCCOc3cccc4c3CN(C3CCC(=O)NC3=O)C4=O)CC1)OC2 (stereo not shown) [Example 146, 3-(4-((5-(6-methyl-3H-spiro[isobenzofuran-1,4′-piperidine]-1′-)pentyl)oxy)-1-oxoisoindoline-2-)piperidine-2,6-dione]	> 7.00
O=C1CCC(N2Cc3c(CCCCN4CCN(c5ccccc5C(F)(F)F)CC4)cccc3C2=O)C(=O)N1 (stereo not shown) [Example 219, 3-(1-oxo-4-(4-(4-(2-(trifluoromethyl)phenyl)piperazine-1-yl)butyl)isoindoline-2-yl)piperidine-2,6-dione]	> 7.00
CC(=O)N[C@@H](CCCc1cccc2c1CN(C1CCC(=O)NC1=O)C2=O)C(=O)NC(C)(C)C (stereo partly drawn) [Example 168, (2S)-2-acetylamino-N-tert-butyl-(2-(2,6-dioxopiperidine-3-)-1-oxoisoindoline-4-)pentanamide]	4.70 to 6.00
